# Laboratory results taken from US7202069B2, “(R)-2-octanol dehydrogenases, methods for producing the enzymes, DNA encoding the enzymes, and methods for producing alcohols using the enzymes” (Daicel Chemical Industries, Ltd., priority 2000, dated 2007).
# Where two headings read alike, the source gives them in different places.
# How the values were obtained:
# [1] = system: (R)-2-octanol dehydrogenase; assay: Residual (R)-2-octanol dehydrogenase activity after treatment with reagents; type: biochemical, Pichia finlandica
# Experimental: The (R)-2-octanol dehydrogenase was treated with various reagents at 30° C. for 30 minutes and the (R)-2-octanol dehydrogenase activity was measured.
# [2] = system: (R)-2-octanol dehydrogenase; assay: Oxidation activity of (R)-2-octanol dehydrogenase on various alcohols, NAD+ as coenzyme; type: biochemical, Pichia finlandica; settings: oxidation activity of (R)-2-octanol taken as 100
# Experimental: (§1) On the other hand, oxidation activity on (R)-2-octanol can be measured as follows. The activity can be validated by incubating at 30° C. the reaction mixture containing Tris-HCl buffer (pH 8.5, 50 mM), 2.5 mM NAD^+, 5 mM (R)-2-octanol, and the enzyme and by measuring increase of absorbance at 340 nm accompanying generation of NADH. 1 U was defined as the amount of the enzyme catalyzing generation of 1 μmol of NADH for 1 minute.
# The (R)-2-octanol dehydrogenase was reacted with various alcohols and its oxidation activity was measured.
# [3] = system: (R)-2-octanol dehydrogenase; assay: Reduction activity of the enzyme of Example 3 on various ketones, NADH as coenzyme; type: biochemical, Pichia finlandica
# Experimental: (§2) In the present invention, reduction activity on 4-chloroacetoacetic acid ester can be measured as follows. The activity can be validated by incubating at 30° C. the reaction mixture containing potassium phosphate buffer (pH 6.5, 100 mM), 0.2 mM NADH, 20 mM ethyl 4-chloroacetoacetate, and the enzyme and by measuring decrease of absorbance at 340 nm accompanying decrease of NADH. 1 U was defined as the amount of the enzyme catalyzing decrease of 1 μmol of NADH for 1 minute. Quantification of proteins can be done by dye binding method using the protein assay kit (BIORAD).
# The enzyme of Example 3 was reacted with various ketones and its reduction activity was measured.
# [4] = system: (R)-2-octanol dehydrogenase; assay: Oxidation activity of (R)-2-octanol dehydrogenase on various alcohols, NAD+ as coenzyme; type: biochemical, Candida utilis; settings: oxidation activity of (R)-2-octanol taken as 100
# Experimental: as §1
# The (R)-2-octanol dehydrogenase was reacted with various alcohols and its oxidation activity was measured. […] As a result, the relative activity was 6.7% for (S)-2-octanol, 8.3% for 2-propanol, and 86% for (R)-1-phenylethanol.
# [5] = system: (R)-2-octanol dehydrogenase; assay: Reduction activity of the enzyme of Example 35 on various ketones, NADH as coenzyme; type: biochemical, Candida utilis
# Experimental: as §2
# The enzyme of Example 35 was also reacted with various ketones and its reduction activity was measured. […] As a result, the relative activity was 26.6% for 2-octanone and 25.3% for acetophenone.
# [6] = system: (R)-2-octanol dehydrogenase; assay: Activation of (R)-2-octanol dehydrogenase by reagents; type: biochemical, Pichia finlandica; settings: for Relative activity: reagent 1 mM, activity without reagents = 100
# Experimental: The activation effect of (R)-2-octanol dehydrogenase in various reagents was measured.
# [7] = (R)-2-octanol oxidation activity of the purified enzyme (specific activity, optimum pH, optimum temperature); type: biochemical, Pichia finlandica; settings: after Superdex 200 gel filtration
# Experimental: as §1
# The highest specific activity of the purified enzyme was about 91 U/mg-protein which is the activity of oxidizing (R)-2-octanol.
# We examined (R)-2-octanol dehydrogenase activity of the enzyme obtained from Example 3 changing pH by using phosphate buffer (KPB), Tris-HCl buffer, Glycine buffer. […] As a result, the optimum pH of the enzyme was from 8.0 to 11.0.
# We examined (R)-2-octanol oxidation activity of the enzyme obtained from Example 3 changing only temperature in the standard reaction conditions. […] As a result, the optimum temperature of the enzyme was from 45 to 55.
# [8] = reagent 1 mM, 30° C. for 30 minutes, enzyme treated without reagents = 100
# [9] = reduction activity of 4-chloroacetoacetic acid ethyl ester taken as 100, NADH as coenzyme
# [10] = 4-chloroacetoacetic acid ethyl ester taken as 100, NADH
# [11] = treated at 30° C. for 30 minutes
# [12] = reagent 0.01 mM, 30° C. for 30 minutes, enzyme treated without reagents = 100
molecule,measurement,setting,value
O[C@H](CS)[C@H](O)CS (racemic) [Dithiothreitol],Residual activity,[1]; [8],123%
CCCCCCCCO [1-Octanol],"relative activity, oxidation reaction",[2]; NAD+ as coenzyme,1.72
CC(O)COc1ccccc1 (stereo not drawn) [1-Phenoxy-2-propanol],"relative activity, oxidation reaction",[2]; NAD+ as coenzyme,15.5
CC(=O)COc1ccccc1 [1-Phenoxy-2-propanone],"relative activity, reduction reaction",[3]; [9],54.2
CCC(C)=O [2-Butanone],"relative activity, reduction reaction",[3]; [9],7.99
CCCCC(C)O (stereo not drawn) [2-Hexanol],"relative activity, oxidation reaction",[2]; NAD+ as coenzyme,54.1
CCCCCCC(C)O (stereo not drawn) [2-Octanol],"relative activity, oxidation reaction",[2]; NAD+ as coenzyme,77.8
same,"relative activity, oxidation reaction",[4]; NAD+ as coenzyme,8.3
CCCCCCC(C)=O [2-Octanone],"relative activity, reduction reaction",[5]; [10],26.6%
same,"relative activity, reduction reaction",[5]; [9],26.6
same,"relative activity, reduction reaction",[3]; [10],31.2%
same,"relative activity, reduction reaction",[3]; [9],31.2
CC(C)O [2-Propanol],"relative activity, oxidation reaction",[2]; NAD+,6.8%
same,"relative activity, oxidation reaction",[2]; NAD+ as coenzyme,6.79
same,"relative activity, oxidation reaction",[4]; NAD+,8.3%
CC(=O)CCO [4-Hydroxy-2-butanone],"relative activity, reduction reaction",[3]; [9],0.691
"C[C@@H](O)CCO [(R)-1,3-butanediol]","relative activity, oxidation reaction",[2]; NAD+ as coenzyme,1.29
"OCC[C@@H](O)c1ccccc1 [(R)-1-phenyl-1,3-propanediol]","relative activity, oxidation reaction",[2]; NAD+ as coenzyme,0.344
C[C@@H](O)c1ccccc1 [(R)-1-phenylethanol],"relative activity, oxidation reaction",[2]; NAD+,255%
same,"relative activity, oxidation reaction",[2]; NAD+ as coenzyme,255
same,"relative activity, oxidation reaction",[4]; NAD+,86%
same,"relative activity, oxidation reaction",[4]; NAD+ as coenzyme,86.7
CCCCCC[C@@H](C)O [(R)-2-octanol],"relative activity, oxidation reaction",[2]; NAD+ as coenzyme,100
same,"relative activity, oxidation reaction",[4]; NAD+ as coenzyme,100
"C[C@H](O)CCO [(S)-1,3-butanediol]","relative activity, oxidation reaction",[2]; NAD+ as coenzyme,0.516
"OCC[C@H](O)c1ccccc1 [(S)-1-phenyl-1,3-propanediol]","relative activity, oxidation reaction",[2]; NAD+ as coenzyme,0.258
C[C@H](O)c1ccccc1 [(S)-1-phenylethanol],"relative activity, oxidation reaction",[2]; NAD+ as coenzyme,1.81
same,"relative activity, oxidation reaction",[4]; NAD+ as coenzyme,6.7
CCCCCC[C@H](C)O [(S)-2-octanol],"relative activity, oxidation reaction",[2]; NAD+,4.7%
same,"relative activity, oxidation reaction",[2]; NAD+ as coenzyme,4.73
same,"relative activity, oxidation reaction",[4]; NAD+,6.7%
same,"relative activity, oxidation reaction",[4]; NAD+ as coenzyme,6.7
CC(C)=O [Acetone],"relative activity, reduction reaction",[3]; [9],1.82
CC(=O)c1ccccc1 [Acetophenone],"relative activity, reduction reaction",[5]; [10],25.3%
same,"relative activity, reduction reaction",[5]; [9],25.3
same,"relative activity, reduction reaction",[3]; [10],45%
same,"relative activity, reduction reaction",[3]; [9],45.3
O.O.[Ba+2].[Cl-].[Cl-] [BaCl2Ñ2H2O],Residual activity,[1]; [8],102%
"[Ca+2].[Cl-].[Cl-] [CaCl2Ñ2H2O, calcium chloride]",Residual activity,[1],174%
same,"effect of reagent on the enzyme (inhibition / stabilization), in words",[1],stabilized
O.O.O.O.O.O.[Cl-].[Cl-].[Co+2] [CoCl2Ñ6H2O],Residual activity,[1]; [8],99%
O=S(=O)([O-])[O-].[Cu+2] [CuSO4],Residual activity,[1]; [8],100%
OC1CCCCC1 [Cyclohexanol],"relative activity, oxidation reaction",[2]; NAD+ as coenzyme,0.172
"O=C([O-])CN(CCN(CC(=O)[O-])CC(=O)O)CC(=O)O.[Na+].[Na+] [EDTAÑ2Na, ethylenediaminetetraacetic acid 2Na]",Residual activity,[1]; [8],81%
same,"effect of reagent on the enzyme (inhibition / stabilization), in words",[1]; [11],slightly inhibited
CCO [Ethanol],"relative activity, oxidation reaction",[2]; NAD+ as coenzyme,0.688
CCOC(=O)CC(=O)CCl [Ethyl 4-chloroacetoacetate],"relative activity, reduction reaction",[5]; [9],100
same,"relative activity, reduction reaction",[3]; [9],100
CCOC(=O)C[C@@H](C)O [Ethyl (R)-3-hydroxybutyrate],"relative activity, oxidation reaction",[2]; NAD+ as coenzyme,41.1
CCOC(=O)C[C@@H](O)CCl [Ethyl (R)-4-chloro-3-hydroxybutyrate],"relative activity, oxidation reaction",[2]; NAD+ as coenzyme,0.172
CCOC(=O)C[C@H](C)O [Ethyl (S)-3-hydroxybutyrate],"relative activity, oxidation reaction",[2]; NAD+ as coenzyme,1.03
CCOC(=O)C[C@H](O)CCl [Ethyl (S)-4-chloro-3-hydroxybutyrate],"relative activity, oxidation reaction",[2]; NAD+ as coenzyme,2.24
CCOC(=O)CC(C)=O [Ethyl acetoacetate],"relative activity, reduction reaction",[3]; [9],106
[Cl][Fe][Cl] [FeCl2],Residual activity,[1]; [8],93%
"[Cl][Hg][Cl] [HgCl2, mercury chloride]",Residual activity,[1]; [12],62%
same,"effect of reagent on the enzyme (inhibition / stabilization), in words",[1]; [11],slightly inhibited
[Cl-].[K+] [KCl],Residual activity,[1]; [8],106%
"[Cl-].[Cl-].[Mg+2] [MgCl2Ñ6H2O, magnesium chloride]",Relative activity,[6],122%
same,Residual activity,[1],185%
same,"effect of reagent on the enzyme (inhibition / stabilization), in words",[1],stabilized
O=S(=O)([O-])[O-].[Mg+2] [MgSO4],Relative activity,[6],125%
CCN1C(=O)C=CC1=O [N-ethylmaleimide],Residual activity,[1]; [8],147%
same,"effect of reagent on the enzyme (inhibition / stabilization), in words",[1]; [11],stabilized
Cl.NO [NH2OHÑHCl],Residual activity,[1]; [12],99%
O.O.O.O.O.O.[Cl][Ni][Cl] [NiCl2Ñ6H2O],Residual activity,[1]; [8],103%
O=S(=O)(F)Cc1ccccc1 [Phenylmethylsulfonyl fluoride],Residual activity,[1]; [8],111%
CCC=O [Propionaldehyde],"relative activity, reduction reaction",[3]; [9],18.4
O=c1c(O)c(-c2ccc(O)c(O)c2)oc2cc(O)cc(O)c12 [Quercetin],Residual activity,"[1]; reagent 0.1 mM, 30° C. for 30 minutes, enzyme treated without reagents = 100",99%
[Cl-].[Cl-].[Zn+2] [ZnCl2],Relative activity,[6],105%
same,Residual activity,[1]; [8],96%
O.O.O.O.O.O.O.O=S(=O)([O-])[O-].[Zn+2] [ZnSO4Ñ7H2O],Relative activity,[6],110%
[Mg] [magnesium],"activation of the enzyme, in words",[6],activated
[Mn+2] [manganese],"activation of the enzyme, in words",[6],activated
c1cnc2c(c1)ccc1cccnc12 [o-Phenanthroline],Residual activity,[1]; [8],162%
same,"effect of reagent on the enzyme (inhibition / stabilization), in words",[1]; [11],stabilized
O=S(=O)(O)O [sulphate ion],"activation of the enzyme, in words",[6],activated
[Zn+2] [zinc],"activation of the enzyme, in words",[6],activated
(R)-2-butanol,"relative activity, oxidation reaction",[2]; NAD+ as coenzyme,49.3
(S)-2-butanol,"relative activity, oxidation reaction",[2]; NAD+ as coenzyme,7.31
MnSO4Ñ4-5H2O,Relative activity,[6],121%
manganese chloride [MnCl2Ñ4H2O],Relative activity,[6],114%
same,Residual activity,[1]; [8],185%
same,"effect of reagent on the enzyme (inhibition / stabilization), in words",[1]; [11],stabilized
"(R)-2-octanol dehydrogenase from Pichia finlandica: NAD+-dependent (R)-2-octanol dehydrogenase purified from Pichia finlandica DSM 70280; amino acid sequence SEQ ID NO:2 (protein, listed as Pichia finlandica) MSYNFHNKVAVVTGALSGIGLSVAKKFLQLGAKVTISDVSGEKKYHETVVALKAQNLNTDNLHYVQADSSKEEDNKKLISETLATFGGLDIVCANAGIGKFAPTHETPFDVWKKVIAVNLNGVFLLDKLAINYWLEKSKPGVIVNMGSVHSFVAAPGLAHYGAAKGGVKLLTQTLALEYASHGIRVNSVNPGYISTPLIDEVPKERLDKLVSLHPIGRLGRPEEVADAVAFLCSQEATFINGVSLPVDGGYTAQ","highest specific activity of the purified enzyme, oxidizing (R)-2-octanol",[7],about 91 U/mg-protein
